Results reported in patent US20250283040A1, “Methods to Expand a T Regulatory Cell Master Cell Bank” (The Trustees of the University of Pennsylvania, priority 2010, published 2025).
Values joined by “and” are separate entries in the source; they are usually repeats but may differ in a detail not shown here. Identical values can stand only once.

What was measured:
Assay type in all cases: cell-based, human
PB nTreg [1] = experiment: Cell size and viability of nTreg cultures by ViCell; details: sort-purified nTregs stimulated with KT64/86 cells; Rapamycin 109 nM
Experimental: (§1) Where indicated, Rapamycin (Rapammune, Wyeth-Ayerst) at 109 nM was added on day 0 and with subsequent media supplementation. Cell size and viability were determined by ViCell (Beckman Coulter).

nTreg cultures = experiment: Intracellular cytokine staining after PMA/Ionomycin
Experimental: Fresh or frozen nTreg were cultured in supplemented X-Vivo 15 for 4 hours±PMA ([…]) and Ionomycin (1 μg/ml) in the presence of Brefeldin A (100 ng/ml) (all Sigma). Frozen/thawed samples were cultured for 1 hour at 37° C. prior to re-stimulation. Cells were then harvested and stained for CD4, 25, Foxp3 and cytokine (IL-2, IL-4, IL-17, and IFNγ) or Granzyme B using the standard Foxp3 intracellular staining kit.

PB nTreg [2] = experiment: Ex vivo expansion of PB nTreg cultures (fold expansion); details: sort-purified nTregs, first stimulation with KT64/86 cells; Rapamycin 109 nM
Experimental: Experiments were designed to expand Tregs isolated from adult peripheral blood. Tregs were isolated by a two step procedure in which CD4 cells were first enriched by depleting CD8, −14, and −19+ cells with GMP-grade mAb coated microbeads, followed by positive selection of CD25++ cells using GMP-grade anti-CD25 microbeads (either 75μl/2×10^8 cells, Miltenyi). Treg were subsequently expanded in vitro by repeated stimulation with CD3/28 beads or KT64/86 loaded with anti-CD3 antibody. In addition, the expansion scheme involved expanding Tregs in the presence of Rapamycin (109 nM) and restimulation based upon cell size.
For all experiments, non-mobilized peripheral blood Leukapheresis products were collected from normal adult volunteers using FDA approved/cleared apheresis instruments. Written informed consent was obtained from all subjects. nTreg were purified using GMP magnetic beads or by sorting. […]
as §1

[3] = sort-purified nTreg re-stimulated with KT64/86

CO[C@H]1C[C@@H]2CC[C@@H](C)[C@@](O)(O2)C(=O)C(=O)N2CCCC[C@H]2C(=O)O[C@H]([C@H](C)C[C@@H]2CC[C@@H](O)[C@H](OC)C2)CC(=O)[C@H](C)/C=C(\C)[C@@H](O)[C@@H](OC)C(=O)[C@H](C)C[C@H](C)/C=C/C=C/C=C/1C [Rapamycin]
Peak cell size with Rapamycin (PB nTreg [1]): 9.9 µm | % of PMA/ionomycin stimulated cells secreting IL-2, with Rapamycin (nTreg cultures; [3]): ≤ 3% | % of cells secreting IFNγ, with Rapamycin (nTreg cultures; [3]): ≤ 2% | % IL-4+ cells, start of the increase with successive re-stimulations (nTreg cultures; with Rapamycin): 8±2% | % IL-4+ cells after the last (fourth) re-stimulation (nTreg cultures; with Rapamycin, Foxp3+ and −): 58±17% and > 50% | Expansion with Rapamycin (PB nTreg [2]): 55 fold
